Assays:
FLT3 = target: T1, FLT3 (Homo sapiens, UniProt P36888); experiment: TR-FRET kinase activity assay, FLT3; assay type: biochemical; details: ATP at Km, 60 minutes
T1 sequence (P36888 27-993): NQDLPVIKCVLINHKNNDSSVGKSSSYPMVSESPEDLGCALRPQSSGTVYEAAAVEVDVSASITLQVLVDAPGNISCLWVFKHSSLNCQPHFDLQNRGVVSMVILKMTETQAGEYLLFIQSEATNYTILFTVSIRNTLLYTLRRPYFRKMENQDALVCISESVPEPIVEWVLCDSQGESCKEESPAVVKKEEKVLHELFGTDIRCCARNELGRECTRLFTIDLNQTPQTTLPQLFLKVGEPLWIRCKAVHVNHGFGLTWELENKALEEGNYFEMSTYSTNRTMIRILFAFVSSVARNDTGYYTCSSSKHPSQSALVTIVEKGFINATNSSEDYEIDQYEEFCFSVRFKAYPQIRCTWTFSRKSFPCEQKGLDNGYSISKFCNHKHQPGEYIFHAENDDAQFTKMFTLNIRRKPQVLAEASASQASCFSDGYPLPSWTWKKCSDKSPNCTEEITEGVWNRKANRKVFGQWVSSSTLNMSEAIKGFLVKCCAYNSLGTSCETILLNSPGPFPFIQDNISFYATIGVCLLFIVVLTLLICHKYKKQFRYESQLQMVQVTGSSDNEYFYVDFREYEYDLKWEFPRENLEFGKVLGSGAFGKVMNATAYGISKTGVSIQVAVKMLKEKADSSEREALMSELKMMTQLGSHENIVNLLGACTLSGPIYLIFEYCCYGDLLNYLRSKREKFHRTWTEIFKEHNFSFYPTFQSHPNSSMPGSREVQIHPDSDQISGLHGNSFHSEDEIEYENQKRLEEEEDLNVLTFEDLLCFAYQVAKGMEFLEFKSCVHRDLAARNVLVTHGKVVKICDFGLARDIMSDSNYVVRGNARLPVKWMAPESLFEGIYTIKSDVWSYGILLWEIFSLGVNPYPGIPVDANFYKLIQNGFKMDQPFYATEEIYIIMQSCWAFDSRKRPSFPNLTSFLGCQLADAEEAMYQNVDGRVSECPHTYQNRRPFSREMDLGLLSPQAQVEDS
In short: (§1)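 Recombinant human kinases, fluorescent peptide substrate, ATP at Km; 1 h RT, pH 7.5. EDTA-quenched, Eu antibody added, TR-FRET read; IC50 determined.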

AXL = target: T2, AXL (Homo sapiens, UniProt P30530); experiment: TR-FRET kinase activity assay, AXL; assay type: biochemical; details: ATP at Km, 60 minutes
T2 sequence (P30530 26-894): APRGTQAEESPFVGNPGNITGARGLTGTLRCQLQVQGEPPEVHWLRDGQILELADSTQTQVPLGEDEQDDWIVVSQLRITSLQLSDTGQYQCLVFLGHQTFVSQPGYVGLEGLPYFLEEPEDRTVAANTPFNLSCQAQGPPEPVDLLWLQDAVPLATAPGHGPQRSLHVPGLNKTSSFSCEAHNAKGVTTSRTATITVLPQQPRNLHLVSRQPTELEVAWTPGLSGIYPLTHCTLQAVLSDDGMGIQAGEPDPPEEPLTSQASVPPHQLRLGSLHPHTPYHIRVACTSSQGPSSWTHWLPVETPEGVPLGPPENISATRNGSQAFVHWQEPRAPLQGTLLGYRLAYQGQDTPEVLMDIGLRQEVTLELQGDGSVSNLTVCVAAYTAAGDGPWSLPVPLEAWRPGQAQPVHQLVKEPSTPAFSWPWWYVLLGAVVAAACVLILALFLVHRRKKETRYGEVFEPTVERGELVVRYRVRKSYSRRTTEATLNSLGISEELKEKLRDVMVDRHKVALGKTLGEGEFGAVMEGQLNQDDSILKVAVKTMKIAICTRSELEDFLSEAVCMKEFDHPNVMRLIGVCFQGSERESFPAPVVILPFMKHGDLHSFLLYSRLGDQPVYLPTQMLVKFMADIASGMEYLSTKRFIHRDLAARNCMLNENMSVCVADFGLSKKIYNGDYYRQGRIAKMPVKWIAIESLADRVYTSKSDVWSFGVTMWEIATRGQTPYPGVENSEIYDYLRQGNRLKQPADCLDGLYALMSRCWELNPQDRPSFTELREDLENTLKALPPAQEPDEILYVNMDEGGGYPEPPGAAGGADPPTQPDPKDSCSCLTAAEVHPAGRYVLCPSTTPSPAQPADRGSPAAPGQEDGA
In short: as §1

SMILES | IC50 (FLT3) [nM] | IC50 (AXL) [nM]
COC[C@H](C)Nc1ncc2c(N3CCCC3=O)cc([C@H]3CC[C@H](O)CC3)n2n1 [Compound 177] | 1000 to 10000 | 1000 to 10000
COC[C@H](C)Nc1ncc2c(N3CC4(COC4)CC3=O)cc([C@H]3CC[C@H](O)CC3)n2n1 [Compound 178] | 1000 to 10000 | 1000 to 10000
COC[C@H](C)Nc1ncc2c(-c3cccc(CN4CCCC4)c3)cc([C@H]3CC[C@H](O)CC3)n2n1 [Compound 179] | 100 to 1000 | 100 to 1000
COCC(C)Nc1ncc2c(-c3ccc(C(C)N4CCOCC4)cc3)cc(C3CCC(O)CC3)n2n1 (stereo not drawn) [Compound 181] | ≤ 100 | 100 to 1000
COCC(C)Nc1ncc2c(-c3ccc(C(C)N4CCOCC4)cc3)cc(C3CCC(O)CC3)n2n1 (stereo not drawn) [Compound 182] | ≤ 100 | ≤ 100
COC[C@H](C)Nc1ncc2c(-c3ccc(C4(N5CCOCC5)CC4)cc3)cc([C@H]3CC[C@H](O)CC3)n2n1 [Compound 184] | 100 to 1000 | 100 to 1000
C[C@@H](COC(F)F)Nc1ncc2c(-c3ccnc(N4CCO[C@@H](C(C)(C)O)C4)c3)cc([C@H]3CC[C@H](O)CC3)n2n1 [Compound 597] | 100 to 1000 | ≤ 100
C[C@@H](COC(F)F)Nc1ncc2c(-c3ccnc(N4CCOC(C(C)(C)O)C4)c3)cc([C@H]3CC[C@H](O)CC3)n2n1 (stereo partly drawn) [Compound 598] | 100 to 1000 | ≤ 100
COC[C@H](C)Nc1ncc2c(-c3ccnc(N4CCC(C)(O)CC4)c3)cc([C@H]3CC[C@H](O)CC3)n2n1 [Compound 605] | 100 to 1000 | ≤ 100
COC[C@H](C)Nc1ncc2c([C@H]3CC[C@H](C(=O)N4CCN(C)CC4)CC3)cc([C@H]3CC[C@H](O)CC3)n2n1 [Compound 606] | 1000 to 10000 | ≤ 100
COC[C@H](C)Nc1ncc2c([C@H]3CC[C@@H](C(=O)N4CCN(C)CC4)CC3)cc([C@H]3CC[C@H](O)CC3)n2n1 [Compound 607] | 1000 to 10000 | ≤ 100
C[C@@H](CC(F)(F)F)Nc1ncc2c(-c3cnn(C(C)(C)C(=O)C4COC4)c3)cc([C@H]3CC[C@@](C)(O)CC3)n2n1 [Compound 609] | ≤ 100 | ≤ 100
C[C@@H](CC(F)(F)F)Nc1ncc2c(-c3cnn(C(C)(C)C(=O)C4COC4)c3)cc([C@H]3CC[C@](C)(O)CC3)n2n1 [Compound 610] | ≤ 100 | ≤ 100
COC[C@H](C)Nc1ncc2c(-c3cnn(C4COC4)c3)cc([C@H]3CC[C@H](O)C(F)(F)C3)n2n1 [Compound 614] | 100 to 1000 | ≤ 100
CCC1(O)CCC(c2cc(-c3cnn(C4COC4)c3)c3cnc(NC(C)COC)nn23)CC1 (stereo not drawn) [Compound 615] | 100 to 1000 | ≤ 100
CC[C@]1(O)CC[C@@H](c2cc(-c3cnn(C4COC4)c3)c3cnc(N[C@@H](C)COC)nn32)CC1 [Compound 616] | 100 to 1000 | ≤ 100
COC[C@H](C)Nc1ncc2c(-c3cnn(C4COC4)c3)cc([C@H]3CC[C@](O)(C(C)C)CC3)n2n1 [Compound 617] | 100 to 1000 | ≤ 100
COC[C@H](C)Nc1ncc2c(-c3cnn(C4COC4)c3)cc([C@H]3CC[C@@](O)(C(C)C)CC3)n2n1 [Compound 618] | 100 to 1000 | ≤ 100
COC[C@H](C)Nc1ncc2c(-c3cnn(C4COC4)c3)cc([C@H]3CCc4[nH]ncc4C3)n2n1 [Compound 624] | ≤ 100 | ≤ 100

The remaining lines, values ahead:

IC50 (FLT3) [nM] | IC50 (AXL) [nM] | SMILES
1000 to 10000 | 100 to 1000 | COC[C@H](C)Nc1ncc2c(-c3ccnc(C)c3)cc([C@H]3CC[C@@H](O)CC3)n2n1 [Compound 183]
100 to 1000 | ≤ 100 | COC[C@H](C)Nc1ncc2c(-c3cnn(Cc4nnc(C)s4)c3)cc([C@H]3CC[C@H](O)CC3)n2n1 [Compound 596]
1000 to 10000 | ≤ 100 | COC[C@H](C)Nc1ncc2c(-c3cnn(C(C)(C)c4nnc(C(F)F)o4)c3)cc([C@H]3CC[C@H](O)CC3)n2n1 [Compound 599]
1000 to 10000 | ≤ 100 | COC[C@H](C)Nc1ncc2c(-c3cnn(C(C)(C)c4nnc(C(C)C)o4)c3)cc([C@H]3CC[C@H](O)CC3)n2n1 [Compound 600]
1000 to 10000 | ≤ 100 | COC[C@H](C)Nc1ncc2c(-c3cnn(C(C)(C)c4nnc([C@@H]5CCCO5)o4)c3)cc([C@H]3CC[C@H](O)CC3)n2n1 [Compound 601]
1000 to 10000 | ≤ 100 | COC[C@H](C)Nc1ncc2c(-c3cnn(C(C)(C)c4nnc([C@H]5CCCO5)o4)c3)cc([C@H]3CC[C@H](O)CC3)n2n1 [Compound 602]
1000 to 10000 | ≤ 100 | COC[C@H](C)Nc1ncc2c(-c3cnn(C(C)(C)c4nnc(C(F)(F)F)o4)c3)cc([C@H]3CC[C@H](O)CC3)n2n1 [Compound 603]
1000 to 10000 | ≤ 100 | COC[C@H](C)Nc1ncc2c(-c3cnn(C(C)(C)c4nnco4)c3)cc([C@H]3CC[C@H](O)CC3)n2n1 [Compound 604]
≤ 100 | ≤ 100 | C[C@@H](CC(F)(F)F)Nc1ncc2c(-c3cnn(C(C)(C)C(=O)N4CC5(COC5)C4)c3)cc([C@H]3CC[C@H](O)CC3)n2n1 [Compound 608]
100 to 1000 | ≤ 100 | COCC(C)Nc1ncc2c(-c3ccc(C(C)(C)c4nnc(C)o4)s3)cc(C3CCC(O)CC3)n2n1 (stereo not drawn) [Compound 611]
100 to 1000 | ≤ 100 | COC[C@H](C)Nc1ncc2c(-c3cnn(C(C)(C)C(=O)N4CCCC4)c3)cc([C@H]3CC[C@H](O)CC3)n2n1 [Compound 612]
≤ 100 | ≤ 100 | C[C@@H](COC(F)F)Nc1ncc2c(-c3cnn(C(C)(C)C(=O)N4CC5(COC5)C4)c3)cc([C@H]3CC[C@H](O)CC3)n2n1 [Compound 613]
100 to 1000 | ≤ 100 | COC[C@H](C)Nc1ncc2c(-c3ccnc(C(C)(C)O)c3)cc([C@H]3CC[C@H](O)CC3)n2n1 [Compound 619]
1000 to 10000 | ≤ 100 | COC[C@H](C)Nc1ncc2c(-c3cnn(C(C)(C)C(=O)N4CCC(C)(O)C4)c3)cc([C@H]3CC[C@H](O)CC3)n2n1 (stereo partly drawn) [Compound 620]
100 to 1000 | ≤ 100 | COC[C@H](C)Nc1ncc2c(-c3cnn(C(C)(C)C(=O)N4CCCC(C)(O)C4)c3)cc([C@H]3CC[C@H](O)CC3)n2n1 (stereo partly drawn) [Compound 621]
1000 to 10000 | ≤ 100 | COC[C@H](C)Nc1ncc2c(-c3cnn(C(C)(C)C(=O)N4CC(C)(O)C4)c3)cc([C@H]3CC[C@H](O)CC3)n2n1 [Compound 622]
1000 to 10000 | ≤ 100 | COC[C@H](C)Nc1ncc2c(-c3cnn(C(C)(C)c4nc(C)co4)c3)cc([C@H]3CC[C@H](O)CC3)n2n1 [Compound 623]
100 to 1000 | ≤ 100 | COC[C@H](C)Nc1ncc2c(-c3cnn(C(C)(C)c4nnc(C)s4)c3)cc([C@H]3CC[C@H](O)CC3)n2n1 [Compound 625]
≤ 100 | ≤ 100 | C[C@@H](CC(F)(F)F)Nc1ncc2c(-c3cnn(C(C)(C)C(=O)N4CCN(C)CC4)c3)cc(C3CCC(O)CC3)n2n1 (stereo partly drawn) [Compound 626]
1000 to 10000 | ≤ 100 | COC[C@H](C)Nc1ncc2c(-c3ccnc(S(C)(=O)=O)c3)cc(C3CCC(O)CC3)n2n1 (stereo partly drawn) [Compound 627]
